Test results as given in ChEMBL document CHEMBL3734705, “Synthesis and in vitro cytotoxicity of novel C-12 substituted-14-deoxy-andrographolide derivatives as potent anti-cancer agents” (2015).
Calls of active or inactive are those of the source. The calls are words filed in the database; no cut-off is given here.

Columns and labels:
[1] = test system: NCI-H460; assay: Cytotoxicity against human NCI-H460 cells assessed as growth level at 10 uM after 48 hrs by SRB assay; assay type: functional
[2] = Cytotoxicity against human HCT116 cells assessed as growth level at 10 uM after 48 hrs by SRB assay; assay type: functional, HCT-116
[3] = test system: KM12; assay: Cytotoxicity against human KM12 cells assessed as growth level at 10 uM after 48 hrs by SRB assay; assay type: functional
[4] = Cytotoxicity against human SW620 cells assessed as growth level at 10 uM after 48 hrs by SRB assay; assay type: functional, SW-620
[5] = Cytotoxicity against human SNB19 cells assessed as growth level at 10 uM after 48 hrs by SRB assay; assay type: functional, SNB-19
[6] = test system: SK-MEL-28; assay: Cytotoxicity against human SK-MEL-28 cells assessed as growth level at 10 uM after 48 hrs by SRB assay; assay type: functional
[7] = Cytotoxicity against human UACC257 cells assessed as growth level at 10 uM after 48 hrs by SRB assay; assay type: functional, UACC-257
[8] = Cytotoxicity against human SKOV3 cells assessed as growth level at 10 uM after 48 hrs by SRB assay; assay type: functional, SK-OV-3
[9] = Cytotoxicity against human UO31 cells assessed as growth level at 10 uM after 48 hrs by SRB assay; assay type: functional, UO-31
[10] = test system: MCF7; assay: Cytotoxicity against human MCF7 cells assessed as growth level at 10 uM after 48 hrs by SRB assay; assay type: functional
[11] = Cytotoxicity against human Hs578T cells assessed as growth level at 10 uM after 48 hrs by SRB assay; assay type: functional, Hs-578T
[12] = test system: T47D; assay: Cytotoxicity against human T47D cells assessed as growth level at 10 uM after 48 hrs by SRB assay; assay type: functional
[13] = test system: MDA-MB-468; assay: Cytotoxicity against human MDA-MB-468 cells assessed as growth level at 10 uM after 48 hrs by SRB assay; assay type: functional
[14] = Cytotoxicity against human HL-60(TB) cells assessed as growth inhibition at 10 uM after 48 hrs by SRB assay; assay type: functional; settings: HL-60, 48 h, read-out: GI
[15] = Cytotoxicity against human MOLT4 cells assessed as growth inhibition at 10 uM after 48 hrs by SRB assay; assay type: functional; settings: MOLT-4, 48 h, read-out: GI
[16] = Cytotoxicity against human HOP92 cells assessed as growth inhibition at 10 uM after 48 hrs by SRB assay; assay type: functional; settings: HOP-92, 48 h, read-out: GI
[17] = test system: NCI-H23; assay: Cytotoxicity against human NCI-H23 cells assessed as growth inhibition at 10 uM after 48 hrs by SRB assay; assay type: functional; settings: NCI-H23, 48 h, read-out: GI
[18] = test system: NCI-H322M; assay: Cytotoxicity against human NCI-H322M cells assessed as growth inhibition at 10 uM after 48 hrs by SRB assay; assay type: functional
[19] = Cytotoxicity against human COLO205 cells assessed as growth inhibition at 10 uM after 48 hrs by SRB assay; assay type: functional; settings: COLO 205, 48 h, read-out: GI
[20] = Cytotoxicity against human SNB19 cells assessed as growth inhibition at 10 uM after 48 hrs by SRB assay; assay type: functional; settings: SNB-19, 48 h, read-out: GI
[21] = Cytotoxicity against human SNB75 cells assessed as growth inhibition at 10 uM after 48 hrs by SRB assay; assay type: functional; settings: SNB-75, 48 h, read-out: GI
[22] = Cytotoxicity against human LOXIMVI cells assessed as growth inhibition at 10 uM after 48 hrs by SRB assay; assay type: functional; settings: LOX IMVI, read-out: GI
[23] = Cytotoxicity against human OVCAR8 cells assessed as growth inhibition at 10 uM after 48 hrs by SRB assay; assay type: functional; settings: OVCAR-8, 48 h, read-out: GI
[24] = Cytotoxicity against human Caki1 cells assessed as growth inhibition at 10 uM after 48 hrs by SRB assay; assay type: functional; settings: CAKI-1, 48 h, read-out: GI
[25] = Cytotoxicity against human RXF393 cells assessed as growth inhibition at 10 uM after 48 hrs by SRB assay; assay type: functional; settings: RXF 393, 48 h, read-out: GI
[26] = Cytotoxicity against human TK10 cells assessed as growth inhibition at 10 uM after 48 hrs by SRB assay; assay type: functional; settings: TK-10, 48 h, read-out: GI
[27] = Cytotoxicity against human BT549 cells assessed as growth inhibition at 10 uM after 48 hrs by SRB assay; assay type: functional; settings: BT-549, 48 h, read-out: GI
[28] = test system: CCRF-CEM; assay: Cytotoxicity against human CCRF-CEM cells after 48 hrs by SRB assay; assay type: functional
[29] = Cytotoxicity against human HL-60(TB) cells after 48 hrs by SRB assay; assay type: functional; settings: HL-60, 48 h
[30] = Cytotoxicity against human MOLT4 cells after 48 hrs by SRB assay; assay type: functional; settings: MOLT-4, 48 h
[31] = test system: SR; assay: Cytotoxicity against human SR cells after 48 hrs by SRB assay; assay type: functional
[32] = test system: EKVX; assay: Cytotoxicity against human EKVX cells after 48 hrs by SRB assay; assay type: functional
[33] = Cytotoxicity against human SW620 cells after 48 hrs by SRB assay; assay type: functional; settings: SW-620, 48 h
[34] = Cytotoxicity against human SF295 cells after 48 hrs by SRB assay; assay type: functional; settings: SF-295, 48 h
[35] = test system: M14; assay: Cytotoxicity against human M14 cells after 48 hrs by SRB assay; assay type: functional; settings: M14, 48 h
[36] = Cytotoxicity against human OVCAR3 cells after 48 hrs by SRB assay; assay type: functional; settings: OVCAR-3, 48 h
[37] = Cytotoxicity against human PC3 cells after 48 hrs by SRB assay; assay type: functional; settings: PC-3, 48 h
[38] = Cytotoxicity against human DU145 cells after 48 hrs by SRB assay; assay type: functional; settings: DU-145, 48 h
[39] = Cytotoxicity against human BT549 cells after 48 hrs by SRB assay; assay type: functional; settings: BT-549, 48 h
[40] = test system: MDA-MB-468; assay: Cytotoxicity against human MDA-MB-468 cells after 48 hrs by SRB assay; assay type: functional; settings: MDA-MB-468, 48 h
[41] = test system: K562; assay: Cytotoxicity against human K562 cells assessed as growth level at 10 uM after 48 hrs by SRB assay; assay type: functional
[42] = read-out: LC50 (the source's name)

SMILES: C=C1CC[C@@H]2[C@](C)(COC(C)=O)[C@H](OC(C)=O)CC[C@@]2(C)[C@@H]1C/C=C1/C(=O)OC[C@H]1OC(C)=O
- Activity [1]: 98.04%
- Activity [2]: -37.34%
- Activity [3]: 52.83%
- Activity [4]: -21.85%
- Activity [5]: 82.96%
- Activity [6]: 37.78%
- Activity [7]: 66.52%
- Activity [8]: 101.37%
- Activity [9]: 62.83%
- Activity [10]: 22.9%
- Activity [11]: 100.18%
- Activity [12]: 42.77%
- Activity [13]: 7.98%
- inhibition of growth at 10 µM [14]: 20.9%
- inhibition of growth at 10 µM [15]: 6.05%
- inhibition of growth at 10 µM [16]: 28.1%
- inhibition of growth at 10 µM [17]: 19.1%
- growth inhibition (GI) [18]: inactive
- inhibition of growth at 10 µM [19]: 78%
- inhibition of growth at 10 µM [20]: 17%
- inhibition of growth at 10 µM [21]: 55.1%
- inhibition of growth at 10 µM [22]: 74.4%
- inhibition of growth at 10 µM [23]: 72.9%
- inhibition of growth at 10 µM [24]: 18.5%
- inhibition of growth at 10 µM [25]: 7.35%
- inhibition of growth at 10 µM [26]: 83.1%
- inhibition of growth at 10 µM [27]: 72.6%
- GI50 [28]: 1.12 µM
- TGI [28]: 5.32 µM
- CC50 [28, 42]: > 100 µM
- GI50 [29]: 2.61 µM
- TGI [29]: 6.78 µM
- CC50 [29, 42]: 78.5 µM
- GI50 [30]: 3.8 µM
- LC50 [30]: > 100 µM
- TGI [30]: 16.1 µM
- GI50 [31]: 2.59 µM
- TGI [31]: 10.1 µM
- CC50 [31, 42]: > 100 µM
- GI50 [32]: 12.9 µM
- LC50 [32]: 50.9 µM
- TGI [32]: 25.6 µM
- GI50 [33]: 2.29 µM
- LC50 [33]: 41.1 µM
- TGI [33]: 5.85 µM
- GI50 [34]: 13.3 µM
- LC50 [34]: 54.2 µM
- TGI [34]: 26.8 µM
- GI50 [35]: 2.22 µM
- LC50 [35]: 26.5 µM
- TGI [35]: 6.48 µM
- GI50 [36]: 2.17 µM
- LC50 (concentration killing 50% of cells) [36]: 8.15 µM
- TGI [36]: 4.21 µM
- GI50 [37]: 6.07 µM
- LC50 [37]: 48.9 µM
- TGI [37]: 19.9 µM
- GI50 [38]: 4.47 µM
- LC50 (concentration killing 50% of cells) [38]: 38.4 µM
- TGI [38]: 14.7 µM
- GI50 [39]: 2.29 µM
- TGI [39]: 5.63 µM
- CC50 [39, 42]: 18.8 µM
- GI50 [40]: 2.04 µM
- LC50 [40]: 74.4 µM
- TGI [40]: 5.69 µM
- Activity [41]: 11.07%

SMILES: C=C1CC[C@@H]2[C@](C)(COC(C)=O)[C@H](OC(C)=O)CC[C@@]2(C)[C@@H]1CC(NCCCCCCCC)C1=CCOC1=O (mixture of isomers)
- Activity [1]: 52.67%
- Activity [2]: 35.89%
- Activity [3]: 68.58%
- Activity [4]: 72.43%
- Activity [5]: 78.29%
- Activity [6]: 85.58%
- Activity [7]: 61.1%
- Activity [8]: 77.13%
- Activity [9]: 56.13%
- Activity [10]: 68.8%
- Activity [11]: 83.08%
- Activity [12]: 57.98%
- Activity [13]: 32.04%
- inhibition of growth at 10 µM [14]: 41.1%
- inhibition of growth at 10 µM [15]: 63.5%
- inhibition of growth at 10 µM [16]: 55.4%
- inhibition of growth at 10 µM [17]: 29.2%
- inhibition of growth at 10 µM ([18]; read-out: GI): 1.99%
- inhibition of growth at 10 µM [19]: 29.2%
- inhibition of growth at 10 µM [20]: 21.2%
- inhibition of growth at 10 µM [21]: 25.4%
- inhibition of growth at 10 µM [22]: 46.1%
- inhibition of growth at 10 µM [23]: 29%
- inhibition of growth at 10 µM [24]: 31.3%
- inhibition of growth at 10 µM [25]: 14.3%
- inhibition of growth at 10 µM [26]: 17.3%
- inhibition of growth at 10 µM [27]: 30.4%
- Activity [41]: 34.66%

SMILES: C=C1CC[C@@H]2[C@](C)(COC(C)=O)[C@H](OC(C)=O)CC[C@@]2(C)[C@@H]1CC(NC1CCCC1)C1=CCOC1=O (stereo partly specified)
- Activity [1]: 74.77%
- Activity [2]: 44.68%
- Activity [3]: 74.46%
- Activity [4]: 67.48%
- Activity [6]: 91.05%
- Activity [7]: 38.37%
- Activity [8]: 87.88%
- Activity [9]: 56.08%
- Activity [10]: 72.42%
- Activity [11]: 74.91%
- Activity [12]: 50.85%
- Activity [13]: 34.72%
- inhibition of growth at 10 µM [14]: 57.3%
- inhibition of growth at 10 µM [15]: 57.6%
- inhibition of growth at 10 µM [16]: 74.8%
- inhibition of growth at 10 µM [17]: 37.5%
- growth inhibition (GI) [18]: inactive
- inhibition of growth at 10 µM [19]: 24.8%
- inhibition of growth at 10 µM [21]: 32%
- inhibition of growth at 10 µM [22]: 31.5%
- inhibition of growth at 10 µM [23]: 46.3%
- inhibition of growth at 10 µM [24]: 39.3%
- inhibition of growth at 10 µM [25]: 22%
- inhibition of growth at 10 µM [26]: 12.9%
- inhibition of growth at 10 µM [27]: 44.4%
- Activity [41]: 48.3%
